Here are results for seven compounds from patent publication US20230272029A1, “CO-AGONISTS AT GLP-1 AND GIP RECEPTORS SUITABLE FOR ORAL DELIVERY” (Novo Nordisk A/S, priority 2020, published 2023).

Marks after values point to notes of the source that are not given here. Starred links: 1 amine or outer side, 2 acyl side, 3 side chain; linkers in the order of their positions; H or OH if unused. Non-standard residues stand in square brackets, D forms with d. Residues, ends and D or L forms follow the SMILES beside them. Groups on a side chain read outwards from the residue. *: point of attachment. C18 diacid = O=C(O)CCCCCCCCCCCCCCCCC(=O)*; γGlu = O=C(O)[C@H](CCC(=O)[*:2])N[*:1]; εLys = N[C@@H](CCCCN[*:1])C(=O)[*:2]; AEEA = NCCOCCOCC(=O)O; Aib = CC(C)(N)C(=O)O

The first data set can be described thus: Pharmacokinetic study in dogs after oral dosing of tablets with SNAC. In kind it is in vivo, Beagle dogs. The note with it: dog, in vivo, po. In a few lines:
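Male beagle dogs were fasted and given a single oral tablet containing 3-4 mg test substance with 100-300 mg SNAC, in groups of 6-8. Plasma from serial EDTA blood samples was analysed by LC-MS, and t1/2, Cmax/D, tmax and AUC/D were obtained by non-compartmental analysis.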
Consider `CC[C@H](C)[C@H](NC(=O)[C@H](Cc1ccccc1)NC(=O)[C@H](CCC(=O)O)NC(=O)[C@H](CCC(N)=O)NC(=O)[C@H](C)NC(=O)[C@H](C)NC(=O)[C@H](CCC(N)=O)NC(=O)[C@H](CCCCNC(=O)[C@@H](N)CCCCNC(=O)[C@@H](N)CCCCNC(=O)CC[C@H](NC(=O)CCCCCCCCCCCCCCCCC(=O)O)C(=O)O)NC(=O)[C@H](CCC(=O)O)NC(=O)[C@H](CC(C)C)NC(=O)[C@H](CC(C)C)NC(=O)[C@@H](NC(=O)[C@H](CO)NC(=O)[C@H](Cc1ccc(O)cc1)NC(=O)[C@H](CC(=O)O)NC(=O)[C@H](CO)NC(=O)[C@@H](NC(=O)[C@H](Cc1ccccc1)NC(=O)[C@@H](NC(=O)CNC(=O)[C@H](CCC(=O)O)NC(=O)C(C)(C)NC(=O)[C@@H](N)Cc1ccc(O)cc1)[C@@H](C)O)[C@@H](C)O)[C@@H](C)CC)C(=O)N[C@@H](CCC(=O)O)C(=O)N[C@@H](Cc1c[nH]c2ccccc12)C(=O)N[C@@H](CC(C)C)C(=O)N[C@@H](CC(C)C)C(=O)N[C@@H](C)C(=O)NCC(=O)NCC(=O)N1CCC[C@H]1C(=O)N[C@@H](CO)C(=O)N[C@@H](CO)C(=O)NCC(=O)N[C@@H](C)C(=O)N1CCC[C@H]1C(=O)N1CCC[C@H]1C(=O)N1CCC[C@H]1C(=O)N[C@@H](CO)C(=O)O` [Compound No. 29] (H-Y[Aib]EGTFTSDYSILLEK([εLys-εLys-γGlu-C18 diacid])QAAQEFIEWLLAGGPSSGAPPPS-OH), for which the Cmax/Dose is 0.26** kg/L. On to `CC[C@H](C)[C@H](NC(=O)[C@H](Cc1ccccc1)NC(=O)[C@H](CCC(=O)O)NC(=O)[C@H](Cc1c[nH]cn1)NC(=O)[C@H](C)NC(=O)[C@H](C)NC(=O)[C@H](CCC(N)=O)NC(=O)[C@H](CCCCNC(=O)[C@@H](N)CCCCNC(=O)[C@@H](N)CCCCNC(=O)CC[C@H](NC(=O)CCCCCCCCCCCCCCCCC(=O)O)C(=O)O)NC(=O)[C@H](CCC(=O)O)NC(=O)[C@H](CC(C)C)NC(=O)[C@H](CC(C)C)NC(=O)[C@@H](NC(=O)[C@H](CO)NC(=O)[C@H](Cc1ccc(O)cc1)NC(=O)[C@H](CC(=O)O)NC(=O)[C@H](CO)NC(=O)[C@@H](NC(=O)[C@H](Cc1ccccc1)NC(=O)[C@@H](NC(=O)CNC(=O)[C@H](CCC(=O)O)NC(=O)C(C)(C)NC(=O)[C@@H](N)Cc1ccc(O)cc1)[C@@H](C)O)[C@@H](C)O)[C@@H](C)CC)C(=O)N[C@@H](CCC(=O)O)C(=O)N[C@@H](Cc1c[nH]c2ccccc12)C(=O)N[C@@H](CC(C)C)C(=O)N[C@@H](CC(C)C)C(=O)N[C@@H](C)C(=O)NCC(=O)NCC(=O)N1CCC[C@H]1C(=O)N[C@@H](CO)C(=O)N[C@@H](CO)C(=O)NCC(=O)N[C@@H](C)C(=O)N1CCC[C@H]1C(=O)N1CCC[C@H]1C(=O)N1CCC[C@H]1C(=O)N[C@@H](CO)C(=O)O` [Compound No. 30] (H-Y[Aib]EGTFTSDYSILLEK([εLys-εLys-γGlu-C18 diacid])QAAHEFIEWLLAGGPSSGAPPPS-OH), for which the AUC/Dose is 6.5 kg·h/L and the Cmax/Dose worked out at 0.24 kg/L. As to `CC[C@H](C)[C@H](NC(=O)[C@H](Cc1ccccc1)NC(=O)[C@H](CCC(=O)O)NC(=O)[C@H](CCCNC(=N)N)NC(=O)[C@H](C)NC(=O)[C@H](C)NC(=O)[C@H](CCC(N)=O)NC(=O)[C@H](CCCCNC(=O)[C@@H](N)CCCCNC(=O)[C@@H](N)CCCCNC(=O)CC[C@H](NC(=O)CCCCCCCCCCCCCCCCC(=O)O)C(=O)O)NC(=O)[C@H](CCC(=O)O)NC(=O)[C@H](CC(C)C)NC(=O)[C@H](CC(C)C)NC(=O)[C@@H](NC(=O)[C@H](CO)NC(=O)[C@H](Cc1ccc(O)cc1)NC(=O)[C@H](CC(=O)O)NC(=O)[C@H](CO)NC(=O)[C@@H](NC(=O)[C@H](Cc1ccccc1)NC(=O)[C@@H](NC(=O)CNC(=O)[C@H](CCC(=O)O)NC(=O)C(C)(C)NC(=O)[C@@H](N)Cc1ccc(O)cc1)[C@@H](C)O)[C@@H](C)O)[C@@H](C)CC)C(=O)N[C@@H](CCC(=O)O)C(=O)N[C@@H](Cc1c[nH]c2ccccc12)C(=O)N[C@@H](CC(C)C)C(=O)N[C@@H](CC(C)C)C(=O)N[C@@H](C)C(=O)NCC(=O)NCC(=O)N1CCC[C@H]1C(=O)N[C@@H](CO)C(=O)N[C@@H](CO)C(=O)NCC(=O)N[C@@H](C)C(=O)N1CCC[C@H]1C(=O)N1CCC[C@H]1C(=O)N1CCC[C@H]1C(=O)N[C@@H](CO)C(=O)O` [Compound No. 31] (H-Y[Aib]EGTFTSDYSILLEK([εLys-εLys-γGlu-C18 diacid])QAAREFIEWLLAGGPSSGAPPPS-OH), the Cmax/Dose is reported as 0.35** kg/L. On the same count and under the same terms, next, `CC[C@H](C)[C@H](NC(=O)[C@H](Cc1ccccc1)NC(=O)[C@H](CCC(=O)O)NC(=O)[C@H](CCCNC(=N)N)NC(=O)[C@H](C)NC(=O)[C@H](C)NC(=O)[C@H](CCC(N)=O)NC(=O)[C@H](CCCCNC(=O)COCCOCCNC(=O)COCCOCCNC(=O)CC[C@H](NC(=O)CCCCCCCCCCCCCCCCC(=O)O)C(=O)O)NC(=O)[C@H](CCC(=O)O)NC(=O)[C@H](CC(C)C)NC(=O)[C@H](CC(C)C)NC(=O)[C@@H](NC(=O)[C@H](CO)NC(=O)[C@H](Cc1ccc(O)cc1)NC(=O)[C@H](CC(=O)O)NC(=O)[C@H](CO)NC(=O)[C@@H](NC(=O)[C@H](Cc1ccccc1)NC(=O)[C@@H](NC(=O)CNC(=O)[C@H](CCC(=O)O)NC(=O)C(C)(C)NC(=O)[C@@H](N)Cc1ccc(O)cc1)[C@@H](C)O)[C@@H](C)O)[C@@H](C)CC)C(=O)N[C@@H](CCC(=O)O)C(=O)N[C@@H](Cc1c[nH]c2ccccc12)C(=O)N[C@@H](CC(C)C)C(=O)N[C@@H](CC(C)C)C(=O)N[C@@H](C)C(=O)NCC(=O)NCC(=O)N1CCC[C@H]1C(=O)N[C@@H](CO)C(=O)N[C@@H](CO)C(=O)NCC(=O)N[C@@H](C)C(=O)N1CCC[C@H]1C(=O)N1CCC[C@H]1C(=O)N1CCC[C@H]1C(=O)N[C@@H](CO)C(=O)O` [Compound No. 32] (H-Y[Aib]EGTFTSDYSILLEK([AEEA-AEEA-γGlu-C18 diacid])QAAREFIEWLLAGGPSSGAPPPS-OH): 0.45* kg/L.

As to `CC[C@H](C)[C@H](NC(=O)[C@H](Cc1ccccc1)NC(=O)[C@H](CCC(=O)O)NC(=O)[C@H](CCCNC(=N)N)NC(=O)[C@H](C)NC(=O)[C@H](C)NC(=O)[C@H](CCC(N)=O)NC(=O)[C@H](CCC(=O)O)NC(=O)[C@H](CCC(=O)O)NC(=O)[C@H](CC(C)C)NC(=O)[C@H](CC(C)C)NC(=O)[C@H](CCCCNC(=O)[C@@H](N)CCCCNC(=O)[C@@H](N)CCCCNC(=O)CC[C@H](NC(=O)CCCCCCCCCCCCCCCCC(=O)O)C(=O)O)NC(=O)[C@H](CO)NC(=O)[C@H](Cc1ccc(O)cc1)NC(=O)[C@H](CC(=O)O)NC(=O)[C@H](CO)NC(=O)[C@@H](NC(=O)[C@H](Cc1ccccc1)NC(=O)[C@@H](NC(=O)CNC(=O)[C@H](CCC(=O)O)NC(=O)C(C)(C)NC(=O)[C@@H](N)Cc1ccc(O)cc1)[C@@H](C)O)[C@@H](C)O)C(=O)N[C@@H](CCC(=O)O)C(=O)N[C@@H](Cc1c[nH]c2ccccc12)C(=O)N[C@@H](CC(C)C)C(=O)N[C@@H](CC(C)C)C(=O)N[C@@H](C)C(=O)NCC(=O)NCC(=O)N1CCC[C@H]1C(=O)N[C@@H](CO)C(=O)N[C@@H](CO)C(=O)NCC(=O)N[C@@H](C)C(=O)N1CCC[C@H]1C(=O)N1CCC[C@H]1C(=O)N1CCC[C@H]1C(=O)N[C@@H](CO)C(=O)O` [Compound No. 40], the AUC/Dose amounted to 27.0 kg·h/L and the Cmax/Dose is recorded as 0.48 kg/L. `CC[C@H](C)[C@H](NC(=O)[C@H](Cc1ccccc1)NC(=O)[C@H](CCC(=O)O)NC(=O)[C@H](CCCNC(=N)N)NC(=O)[C@H](C)NC(=O)[C@H](C)NC(=O)[C@H](CCC(N)=O)NC(=O)[C@H](CCC(=O)O)NC(=O)[C@H](CCC(=O)O)NC(=O)[C@H](CC(C)C)NC(=O)[C@H](CC(C)C)NC(=O)[C@@H](NC(=O)[C@H](CO)NC(=O)[C@H](Cc1ccc(O)cc1)NC(=O)[C@H](CC(=O)O)NC(=O)[C@H](CO)NC(=O)[C@@H](NC(=O)[C@H](Cc1ccccc1)NC(=O)[C@@H](NC(=O)CNC(=O)[C@H](CCC(=O)O)NC(=O)C(C)(C)NC(=O)[C@@H](N)Cc1ccc(O)cc1)[C@@H](C)O)[C@@H](C)O)[C@@H](C)CC)C(=O)N[C@@H](CCC(=O)O)C(=O)N[C@@H](Cc1c[nH]c2ccccc12)C(=O)N[C@@H](CC(C)C)C(=O)N[C@@H](CC(C)C)C(=O)N[C@@H](C)C(=O)NCC(=O)NCC(=O)N1CCC[C@H]1C(=O)N[C@@H](CO)C(=O)N[C@@H](CCCCNC(=O)[C@@H](N)CCCCNC(=O)[C@@H](N)CCCCNC(=O)CC[C@H](NC(=O)CCCCCCCCCCCCCCCCC(=O)O)C(=O)O)C(=O)NCC(=O)N[C@@H](C)C(=O)N1CCC[C@H]1C(=O)N1CCC[C@H]1C(=O)N1CCC[C@H]1C(=O)N[C@@H](CO)C(=O)O` [Compound No. 43] (H-Y[Aib]EGTFTSDYSILLEEQAAREFIEWLLAGGPSK([εLys-εLys-γGlu-C18 diacid])GAPPPS-OH) came in with a Cmax/Dose of 0.22 kg/L.

Still in this data set, the particulars now being: oral tablet, 300 mg SNAC, 3 mg test substance; Beagle dogs; arithmetic mean.
As for `CC[C@H](C)[C@H](NC(=O)[C@H](Cc1ccccc1)NC(=O)[C@H](CCC(=O)O)NC(=O)[C@H](CCCNC(=N)N)NC(=O)[C@H](C)NC(=O)[C@H](C)NC(=O)[C@H](CCC(N)=O)NC(=O)[C@H](CCCCNC(=O)[C@@H](N)CCCCNC(=O)[C@@H](N)CCCCNC(=O)CC[C@H](NC(=O)CCCCCCCCCCCCCCCCC(=O)O)C(=O)O)NC(=O)[C@H](CCC(=O)O)NC(=O)[C@H](CC(C)C)NC(=O)[C@H](CC(C)C)NC(=O)[C@@H](NC(=O)[C@H](CO)NC(=O)[C@H](Cc1ccc(O)cc1)NC(=O)[C@H](CC(=O)O)NC(=O)[C@H](CO)NC(=O)[C@@H](NC(=O)[C@H](Cc1ccccc1)NC(=O)[C@@H](NC(=O)CNC(=O)[C@H](CCC(=O)O)NC(=O)C(C)(C)NC(=O)[C@@H](N)Cc1ccc(O)cc1)[C@@H](C)O)[C@@H](C)O)[C@@H](C)CC)C(=O)N[C@@H](CCC(=O)O)C(=O)N[C@@H](Cc1c[nH]c2ccccc12)C(=O)N[C@@H](CC(C)C)C(=O)N[C@@H](CC(C)C)C(=O)N[C@@H](CCCNC(=N)N)C(=O)NCC(=O)NCC(=O)N1CCC[C@H]1C(=O)N[C@@H](CCC(=O)O)C(=O)N[C@@H](CO)C(=O)NCC(=O)N[C@@H](C)C(=O)N1CCC[C@H]1C(=O)N1CCC[C@H]1C(=O)N1CCC[C@H]1C(=O)N[C@@H](CO)C(=O)O` [Compound No. 28] (H-Y[Aib]EGTFTSDYSILLEK([εLys-εLys-γGlu-C18 diacid])QAAREFIEWLLRGGPESGAPPPS-OH), the Cmax/Dose is 0.36** kg/L.
